Assays:
Test in all cases: relative viability (nuclei count vs DMSO), 5 days (fraction); higher = more cells survive
NCI-H23 = system: NCI-H23
Summary of the method: (§1)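 Lung cancer cell lines were pin-tool dosed in 1536-well plates on the day after seeding, with either a lone drug or a fixed anchor-drug dose plus five library-drug doses (not always all listed) in √10 steps. Nuclei were counted on 4× images after 5 days. Relative viability is the ratio of treated-well to vehicle-well nuclei counts, with each value a median of duplicate plates.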

LU99A = system: LU99A
Summary of the method: as §1

NCI-H650 = system: NCI-H650
Summary of the method: as §1

NCI-H1650 = system: NCI-H1650
Summary of the method: as §1

PC-3 [JPC-3] = system: PC-3 [JPC-3]
Summary of the method: as §1

COR-L23 = system: COR-L23
Summary of the method: as §1

NCI-H1651 = system: NCI-H1651
Summary of the method: as §1

NCI-H2085 = system: NCI-H2085
Summary of the method: as §1

HCC-366 = system: HCC-366
Summary of the method: as §1

HCC-78 = system: HCC-78
Summary of the method: as §1

H3255 = system: H3255
Summary of the method: as §1

HARA = system: HARA
Summary of the method: as §1

NCI-H460 = system: NCI-H460
Summary of the method: as §1

NCI-H358 = system: NCI-H358
Summary of the method: as §1

201T = system: 201T
Summary of the method: as §1

SK-LU-1 = system: SK-LU-1
Summary of the method: as §1

NCI-H3122 = system: NCI-H3122
Summary of the method: as §1

NCI-H2087 = system: NCI-H2087
Summary of the method: as §1

NCI-H596 = system: NCI-H596
Summary of the method: as §1

NCI-H322M = system: NCI-H322M
Summary of the method: as §1

NCI-H1755 = system: NCI-H1755
Summary of the method: as §1

CCNC(=O)c1noc(-c2cc(C(C)C)c(O)cc2O)c1-c1ccc(CN2CCOCC2)cc1 [Luminespib] + C[C@@H](Oc1cc(-c2cnn(C3CCNCC3)c2)cnc1N)c1c(Cl)ccc(F)c1Cl [Crizotinib] (partner 1 µM)
relative viability (NCI-H23; first compound 0.002 µM): 0.56 | relative viability (NCI-H23; first compound 0.006325 µM): 0.538 | relative viability (NCI-H23; first compound 0.02 µM): 0.445 | relative viability (NCI-H23; first compound 0.06325 µM): 0.119 | relative viability (NCI-H23; first compound 0.2 µM): 0.123 | relative viability (LU99A; first compound 0.002 µM): 0.606 | relative viability (LU99A; first compound 0.006325 µM): 0.628 | relative viability (LU99A; first compound 0.02 µM): 0.343 | relative viability (LU99A; first compound 0.06325 µM): 0.127 | relative viability (LU99A; first compound 0.2 µM): 0.112 | relative viability (NCI-H650; first compound 0.002 µM): 0.887 | relative viability (NCI-H650; first compound 0.006325 µM): 0.745 | relative viability (NCI-H650; first compound 0.02 µM): 0.487 | relative viability (NCI-H650; first compound 0.06325 µM): 0.0913 | relative viability (NCI-H650; first compound 0.2 µM): 0.102 | relative viability (NCI-H1650; first compound 0.002 µM): 0.944 | relative viability (NCI-H1650; first compound 0.006325 µM): 0.928 | relative viability (NCI-H1650; first compound 0.02 µM): 0.7 | relative viability (NCI-H1650; first compound 0.06325 µM): 0.12 | relative viability (NCI-H1650; first compound 0.2 µM): 0.134 | relative viability (PC-3 [JPC-3]; first compound 0.002 µM): 1.01 | relative viability (PC-3 [JPC-3]; first compound 0.006325 µM): 0.875 | relative viability (PC-3 [JPC-3]; first compound 0.02 µM): 0.971 | relative viability (PC-3 [JPC-3]; first compound 0.06325 µM): 0.996 | relative viability (PC-3 [JPC-3]; first compound 0.2 µM): 0.933 | relative viability (COR-L23; first compound 0.002 µM): 0.806 | relative viability (COR-L23; first compound 0.006325 µM): 0.629 | relative viability (COR-L23; first compound 0.02 µM): 0.81 | relative viability (COR-L23; first compound 0.06325 µM): 0.0713 | relative viability (COR-L23; first compound 0.2 µM): 0.0608 | relative viability (NCI-H1651; first compound 0.002 µM): 0.85 | relative viability (NCI-H1651; first compound 0.006325 µM): 0.901 | relative viability (NCI-H1651; first compound 0.02 µM): 0.787 | relative viability (NCI-H1651; first compound 0.06325 µM): 0.813 | relative viability (NCI-H1651; first compound 0.2 µM): 0.63 | relative viability (NCI-H2085; first compound 0.002 µM): 1.04 | relative viability (NCI-H2085; first compound 0.006325 µM): 0.953 | relative viability (NCI-H2085; first compound 0.02 µM): 0.948 | relative viability (NCI-H2085; first compound 0.06325 µM): 0.383 | relative viability (NCI-H2085; first compound 0.2 µM): 0.272 | relative viability (HCC-366; first compound 0.002 µM): 0.695 | relative viability (HCC-366; first compound 0.006325 µM): 0.659 | relative viability (HCC-366; first compound 0.02 µM): 0.549 | relative viability (HCC-366; first compound 0.06325 µM): 0.0174 | relative viability (HCC-366; first compound 0.2 µM): 0.0135 | relative viability (HCC-78; first compound 0.002 µM): 0.302 | relative viability (HCC-78; first compound 0.06325 µM): 0.337 | relative viability (HCC-78; first compound 0.2 µM): 0.232 | relative viability (H3255; first compound 0.002 µM): 0.896 | relative viability (H3255; first compound 0.006325 µM): 0.691 | relative viability (H3255; first compound 0.02 µM): 0.755 | relative viability (H3255; first compound 0.06325 µM): 0.621 | relative viability (H3255; first compound 0.2 µM): 0.216 | relative viability (HARA; first compound 0.002 µM): 1.02 | relative viability (HARA; first compound 0.006325 µM): 0.957 | relative viability (HARA; first compound 0.02 µM): 1.17 | relative viability (HARA; first compound 0.06325 µM): 1.06 | relative viability (HARA; first compound 0.2 µM): 0.0699 | relative viability (NCI-H460; first compound 0.002 µM): 0.957 | relative viability (NCI-H460; first compound 0.006325 µM): 0.705 | relative viability (NCI-H460; first compound 0.02 µM): 0.0276 | relative viability (NCI-H460; first compound 0.06325 µM): 0.0089 | relative viability (NCI-H460; first compound 0.2 µM): 0.0097 | relative viability (NCI-H358; first compound 0.002 µM): 0.699 | relative viability (NCI-H358; first compound 0.006325 µM): 0.647 | relative viability (NCI-H358; first compound 0.02 µM): 0.608 | relative viability (NCI-H358; first compound 0.06325 µM): 0.0797 | relative viability (NCI-H358; first compound 0.2 µM): 0.0988 | relative viability (201T; first compound 0.002 µM): 0.995 | relative viability (201T; first compound 0.006325 µM): 0.981 | relative viability (201T; first compound 0.02 µM): 0.968 | relative viability (201T; first compound 0.06325 µM): 1.03 | relative viability (201T; first compound 0.2 µM): 1.03 | relative viability (SK-LU-1; first compound 0.002 µM): 0.992 | relative viability (SK-LU-1; first compound 0.006325 µM): 0.708 | relative viability (SK-LU-1; first compound 0.02 µM): 0.574 | relative viability (SK-LU-1; first compound 0.06325 µM): 0.176 | relative viability (SK-LU-1; first compound 0.2 µM): 0.155 | relative viability (NCI-H3122; first compound 0.002 µM): 0.278 | relative viability (NCI-H3122; first compound 0.006325 µM): 0.267 | relative viability (NCI-H3122; first compound 0.02 µM): 0.222 | relative viability (NCI-H3122; first compound 0.06325 µM): 0.181 | relative viability (NCI-H3122; first compound 0.2 µM): 0.165 | relative viability (NCI-H2087; first compound 0.002 µM): 0.934 | relative viability (NCI-H2087; first compound 0.006325 µM): 0.684 | relative viability (NCI-H2087; first compound 0.02 µM): 0.875 | relative viability (NCI-H2087; first compound 0.06325 µM): 0.156 | relative viability (NCI-H2087; first compound 0.2 µM): 0.145 | relative viability (NCI-H596; first compound 0.002 µM): 1.05 | relative viability (NCI-H596; first compound 0.006325 µM): 1 | relative viability (NCI-H596; first compound 0.06325 µM): 0.851 | relative viability (NCI-H596; first compound 0.2 µM): 0.938 | relative viability (NCI-H322M; first compound 0.002 µM): 0.925 | relative viability (NCI-H322M; first compound 0.006325 µM): 0.924 | relative viability (NCI-H322M; first compound 0.02 µM): 0.718 | relative viability (NCI-H322M; first compound 0.06325 µM): 0.898 | relative viability (NCI-H322M; first compound 0.2 µM): 0.808 | relative viability (NCI-H1755; first compound 0.002 µM): 0.878 | relative viability (NCI-H1755; first compound 0.006325 µM): 0.882 | relative viability (NCI-H1755; first compound 0.02 µM): 0.938 | relative viability (NCI-H1755; first compound 0.06325 µM): 0.756 | relative viability (NCI-H1755; first compound 0.2 µM): 0.315

From the supplement of paper PMC10307832
